From patent publication US8173131B2, “Compositions and methods for modulating RSV infection and immunity” (PerkinElmer Health Sciences, Inc., priority 2000, dated 2012)

Tests used:
RSV = RSV plaque reduction by small molecule peptide inhibitors on Vero cells (Example II); format: cell-based, RSV/A2; conditions: peptide added to heparin 5 μg/ml; in words
Procedure: Vero cells were treated with PBS, RT33, RT34, Δ+1, Δ−1 and EYp1 peptides (100 μm) in the presence (B) or absence of heparin (A) (5 μg/ml). Percentage inhibition was determined by dividing the mean plaque forming units (PFU) of treated Vero cells by the mean PFU of PBS-treated Vero cells.
Different concentrations of the G glycoprotein peptides and/or 5 μg/ml heparin (Sigma) were diluted in Dulbecco's phosphate buffered saline (D-PBS; GIBCO) and added to Vero cell monolayers for 1 h at 37° C. Pre-treated Vero cells were infected with 10^6 PFU of RSV/A2 diluted in serum-free DMEM (GIBCO) for 2 h at 37° C., after which DMEM (GIBCO) containing 10% FBS (Hyclone, Logan, Utah) was added, and the infected cells incubated at 37° C. for 3-4 days. Plaques were enumerated by immunostaining with monoclonal antibodies against the G and F glycoproteins (130-2G and 131-2A, respectively), as described (54,55).

[1] = tested on: cell trafficking to the lung (BAL cells); experiment: In vivo cell trafficking to the lung of naïve mice after intranasal treatment; set-up: species or system BALB/c mice
Procedure: FIG. 5A is a bar graph showing leukocyte chemotaxis toward G glycoprotein or fractalkine (Fkn) in the presence or absence of anti-CX3CR1 antibody or normal rabbit sera. The chemotactic index determined from the fold increase of murine leukocyte migration toward the chemoattractant (e.g., Fkn or G glycoprotein) over the leukocyte migration toward the media alone control using modified Boyden chambers. Fkn, G glycoprotein, […] (10 μg) or normal rabbit sera (10 μg) was added to the upper chamber to examine antagonism of cell migration toward the chemoattractant in the lower chamber. FIG. 5B is a bar graph showing cell trafficking to the lung of naïve BALB/c mice intranasally treated with G glycoprotein, fractalkine or G glycoprotein peptides RT32, RT33 or RT34. BAL cells were fixed and stained with H&E. Cell subsets were determined as a percentage of the total BAL cells counted from >200 cells/slide counting two slides for each experiment. The percent cell type represents the median±SE from three separate experiments. * indicates significant difference compared to tissue culture media alone (p<0.05). Naïve BALB/c mice were i.n. treated with 1 μM G glycoprotein or fractalkine or with 1 μM G glycoprotein peptides. The BAL was collected 2 days post-treatment for analysis.
Cell trafficking to the lung in naïve and FI-RSV-immune BALB/c mice was examined following intranasal treatment with either 1 μM fractalkine, RSV G glycoprotein or RSV G peptides. All mice were females purchased from Harlan Sprague Dawley (Indianapolis, Ind.) and maintained at the Centers for Disease Control and Prevention in Atlanta, Ga. FI-RSV-immune mice were immunized in the superficial gluteal muscle using 10^6 pfu equivalents of FI-RSV in accordance with methods known to those skilled in the art. Mice were anesthetized with 2,2,2,-tribromoethanol and intranasally treated with 0.05 ml of either fractalkine, RSV G glycoprotein or peptide diluted in PBS (GIBCO). At day two post-treatment, the mice were anesthetized, exsanguinated by severing the right caudal artery, and the bronchoalveolar (BAL) cells collected in PBS containing 1% BSA (Sigma). BAL cells were blocked with 10% normal mouse sera (Jackson Laboratories, Bar Harbor, Me.) in PBS, and then stained with the appropriate combinations of FITC- or PE-labeled anti-CD3 (145-2C11), anti-CD4 (GK1.5), anti-CD8 (53-6.7), anti-CD11b (M1/70), anti-CD45R/B220 (RA3-6B2), anti-pan NK cell (DX5), anti-neutrophil (RB6-8C5), and mouse isotype Ab controls (all from PharMingen, San Diego, Calif.). The distribution of cell surface markers was determined in two-color mode on a FACScan with CellQUEST software (Becton-Dickinson, Mountain View, Calif.).

CD3+ BAL cells = experiment: Intracellular cytokine expression by CD3+ T cells following in vivo peptide treatment; set-up: species or system BALB/c mice
Procedure: On day −1, prior to RSV infection, mice were i.p. treated (0.1 ml/mouse) with 100 μM of G glycoprotein peptides RT33 (CWAIC) (SEQ ID NO: 12), RT34 (lacks the CX3C motif) or peptides with changes in the CX3C motif (Δ+1, Δ−1, EYp1). Control mice were treated with PBS containing a similar dilution of DMSO used to solubilize the peptides.
Intracellular cytokine staining was modified for microculture staining as described (55, 57). Briefly, BAL cells were incubated in PBS containing Golgi Stop (Pharmingen) for 3 h at 37° C. to allow for accumulation of intracellular cytokines. The cells were washed in PBS containing 1% bovine serum albumin, blocked with 10% normal mouse sera diluted in PBS containing 1% bovine serum albumin, and stained (4° C., 30 min) with an appropriate dilution of anti-CD3 antibody, fixed and permeabilized in Cytofix/Cytoperm (Pharmingen). The cells were washed in Cytofix/Cytoperm buffer and stained (4° C., 30 min) with appropriate dilutions of anti-IL-2 (JES6-5H4), anti-IL-4 (BVD4-1D11), anti-IL-5 (TRFK5), IL-10 (JES3-16E3), anti-IFNγ (XMG1.2), or anti-TNFα (MP6-XT22) antibodies (Pharmingen) diluted in Cytofix/Cytoperm. Extra- and intracellular staining was analyzed by flow cytometry using a FACScan and Cell Quest software (Becton Dickinson, San Diego, Calif.). Total cytokine expression by CD3+ T cells was determined from the percent cytokine expression of CD3+ T cells and total number of cells recovered. The total number of CD3+ BAL cells expressing a particular cytokine was determined by multiplying the total number of BAL cells by the percent CD3+ cells expressing that particular cytokine.

[2] = day 2 post-treatment, lymphocyte gate
[3] = day 2 post-treatment, ungated events
[4] = naïve BALB/c mice, i.n. 1 μM, day 2 post-treatment, median ± SE
[5] = day 3 pi, peptide 24 hours prior to RSV infection

Sequence	effect of adding peptide to heparin on plaque reduction (RSV)	Total IC cytokine Expressing CD3^+ BAL cells (×10^3) ± SEM: IFNγ (CD3+ BAL cells; day 3 pi)	Total IC cytokine Expressing CD3^+ BAL cells (×10^3) ± SEM: IL-4 (CD3+ BAL cells; day 3 pi)	Total IC cytokine Expressing CD3^+ BAL cells (×10^3) ± SEM: IL-5 (CD3+ BAL cells; day 3 pi)	Total IC cytokine Expressing CD3^+ BAL cells (×10^3) ± SEM: IL-6 (CD3+ BAL cells; day 3 pi)	Total IC cytokine Expressing CD3^+ BAL cells (×10^3) ± SEM: TNFα (CD3+ BAL cells; day 3 pi)	Total IC cytokine Expressing CD3^+ BAL cells (×10^3) ± SEM: IL-2 (CD3+ BAL cells; [5])	Total IC cytokine Expressing CD3^+ BAL cells (×10^3) ± SEM: IFNγ (CD3+ BAL cells; day 5 pi)	Total IC cytokine Expressing CD3^+ BAL cells (×10^3) ± SEM: IL-2 (CD3+ BAL cells; day 5 pi)	Total IC cytokine Expressing CD3^+ BAL cells (×10^3) ± SEM: IL-4 (CD3+ BAL cells; day 5 pi)	Total IC cytokine Expressing CD3^+ BAL cells (×10^3) ± SEM: IL-5 (CD3+ BAL cells; day 5 pi)	Total IC cytokine Expressing CD3^+ BAL cells (×10^3) ± SEM: IL-6 (CD3+ BAL cells; day 5 pi)	Total IC cytokine Expressing CD3^+ BAL cells (×10^3) ± SEM: TNFα (CD3+ BAL cells; day 5 pi)	Total IC cytokine Expressing CD3^+ BAL cells (×10^3) ± SEM: IFNγ (CD3+ BAL cells; day 7 pi)	Total IC cytokine Expressing CD3^+ BAL cells (×10^3) ± SEM: IL-2 (CD3+ BAL cells; day 7 pi)	Total IC cytokine Expressing CD3^+ BAL cells (×10^3) ± SEM: IL-4 (CD3+ BAL cells; day 7 pi)	Total IC cytokine Expressing CD3^+ BAL cells (×10^3) ± SEM: IL-5 (CD3+ BAL cells; day 7 pi)	Total IC cytokine Expressing CD3^+ BAL cells (×10^3) ± SEM: IL-6 (CD3+ BAL cells; day 7 pi)	Total IC cytokine Expressing CD3^+ BAL cells (×10^3) ± SEM: TNFα (CD3+ BAL cells; day 7 pi)	Total IC cytokine Expressing CD3^+ BAL cells (×10^3) ± SEM: IFNγ (CD3+ BAL cells; day 14 pi)	other results
NKKPGKKTTTKP [RT34]	no effect above heparin treatment alone	43 ± 9.4 ×10^3	43 ± 9.2 ×10^3	28 ± 8.0 ×10^3	47 ± 10 ×10^3	57 ± 12 ×10^3	40 ± 8.5 ×10^3	18 ± 2.6 ×10^3	19 ± 2.8 ×10^3	15 ± 2.2 ×10^3	24 ± 3.5 ×10^3	30 ± 4.4 ×10^3	27 ± 3.9 ×10^3	10 ± 3.5 ×10^3	7.7 ± 2.6 ×10^3	11 ± 3.6 ×10^3	8.7 ± 2.9 ×10^3	8.9 ± 3.0 ×10^3	31 ± 5.0 ×10^3	9.7 ± 1.5 ×10^3	Percentage of cells from BAL determined by flow cytometry: B220 [1, 2]: 4 ± 2%; Percentage of cells from BAL determined by flow cytometry: CD4 [1, 2]: 6 ± 2%; Percentage of cells from BAL determined by flow cytometry: CD8 [1, 2]: 3 ± 3%; Percentage of cells from BAL determined by flow cytometry: CD11b [1, 3]: 3 ± 1%; Percentage of cells from BAL determined by flow cytometry: DX5 [1, 3]: 6 ± 2%; Percentage of cells from BAL determined by flow cytometry: RB6-8C5 [1, 3]: 6 ± 4%; Percentage of cells from BAL determined by H&E stain: Eosinophil [1, 4]: 0 ± 0%; Percentage of cells from BAL determined by H&E stain: Lymphocyte [1, 4]: 8 ± 2%; Percentage of cells from BAL determined by H&E stain: Macrophage [1, 4]: 86 ± 8%; Percentage of cells from BAL determined by H&E stain: PMN [1, 4]: 8 ± 3%; mean BAL cell numbers (±SEM) recovered ([1]; naïve BALB/c mice, intranasal 1 μM, 48 hours post-treatment): 2.8 (±0.2) ×10^5 cells/ml; Total IC cytokine Expressing CD3^+ BAL cells (×10^3) ± SEM: IL-2 (CD3+ BAL cells; day 14 pi): 5.4 ± 1.9 ×10^3; Total IC cytokine Expressing CD3^+ BAL cells (×10^3) ± SEM: IL-4 (CD3+ BAL cells; day 14 pi): 8.2 ± 1.3 ×10^3; Total IC cytokine Expressing CD3^+ BAL cells (×10^3) ± SEM: IL-5 (CD3+ BAL cells; day 14 pi): 10 ± 1.7 ×10^3; Total IC cytokine Expressing CD3^+ BAL cells (×10^3) ± SEM: IL-6 (CD3+ BAL cells; day 14 pi): 11 ± 1.7 ×10^3; Total IC cytokine Expressing CD3^+ BAL cells (×10^3) ± SEM: TNFα (CD3+ BAL cells; day 14 pi): 10 ± 1.6 ×10^3
TCWACKRIPNK (TCWAIACKRIPNK) [Δ − 1]	no effect above heparin treatment alone	47 ± 15 ×10^3	47 ± 15 ×10^3	49 ± 16 ×10^3	51 ± 17 ×10^3	55 ± 17 ×10^3	46 ± 15 ×10^3	10 ± 1.6 ×10^3	11 ± 1.7 ×10^3	13 ± 1.9 ×10^3	15 ± 2.2 ×10^3	13 ± 2.0 ×10^3	18 ± 2.7 ×10^3	4.7 ± 0.7 ×10^3	3.5 ± 0.5 ×10^3	2.8 ± 0.4 ×10^3	4.2 ± 0.6 ×10^3	6.3 ± 1.0 ×10^3	12 ± 0.7 ×10^3	10 ± 1.2 ×10^3	Total IC cytokine Expressing CD3^+ BAL cells (×10^3) ± SEM: IL-2 (CD3+ BAL cells; day 14 pi): 8.7 ± 1.0 ×10^3; Total IC cytokine Expressing CD3^+ BAL cells (×10^3) ± SEM: IL-4 (CD3+ BAL cells; day 14 pi): 12 ± 1.4 ×10^3; Total IC cytokine Expressing CD3^+ BAL cells (×10^3) ± SEM: IL-5 (CD3+ BAL cells; day 14 pi): 14 ± 1.7 ×10^3; Total IC cytokine Expressing CD3^+ BAL cells (×10^3) ± SEM: IL-6 (CD3+ BAL cells; day 14 pi): 13 ± 1.6 ×10^3; Total IC cytokine Expressing CD3^+ BAL cells (×10^3) ± SEM: TNFα (CD3+ BAL cells; day 14 pi): 11 ± 1.4 ×10^3
TCWAIACKRIPNK [Δ + 1]	no effect above heparin treatment alone	18 ± 2.2 ×10^3	18 ± 2.3 ×10^3	23 ± 2.9 ×10^3	21 ± 2.8 ×10^3	19 ± 2.5 ×10^3	15 ± 2.0 ×10^3	17 ± 5.3 ×10^3	16 ± 5.1 ×10^3	20 ± 6.2 ×10^3	23 ± 7.2 ×10^3	21 ± 6.5 ×10^3	21 ± 6.8 ×10^3	5.6 ± 1.6 ×10^3	7.5 ± 2.2 ×10^3	5.8 ± 1.7 ×10^3	9.9 ± 2.9 ×10^3	11 ± 3.3 ×10^3	15 ± 2.9 ×10^3	11 ± 3.5 ×10^3	Total IC cytokine Expressing CD3^+ BAL cells (×10^3) ± SEM: IL-2 (CD3+ BAL cells; day 14 pi): 10 ± 3.2 ×10^3; Total IC cytokine Expressing CD3^+ BAL cells (×10^3) ± SEM: IL-4 (CD3+ BAL cells; day 14 pi): 14 ± 4.2 ×10^3; Total IC cytokine Expressing CD3^+ BAL cells (×10^3) ± SEM: IL-5 (CD3+ BAL cells; day 14 pi): 16 ± 4.9 ×10^3; Total IC cytokine Expressing CD3^+ BAL cells (×10^3) ± SEM: IL-6 (CD3+ BAL cells; day 14 pi): 12 ± 3.7 ×10^3; Total IC cytokine Expressing CD3^+ BAL cells (×10^3) ± SEM: TNFα (CD3+ BAL cells; day 14 pi): 15 ± 4.7 ×10^3
